A short description of series [1]: Cytotoxicity in Vero cells (ATPlite cell viability). The format is cell-based. The note with it: African green monkey, Table 1A, read-out: Tox Vero (CC50). On the procedure: (§1) The antiviral activity of the compounds against DENV-2/16681/eGFP was determined in a phenotypic antiviral assay with eGFP read-out, a measure for the amount of virus (TV-WI-03476 and TV-WI-05601). In parallel, cytotoxicity of the compounds was measured using ATPLite™ (PerkinElmer, Waltham, Mass.). The assay was performed in two different cell-lines (Vero and Huh-7) to exclude cell-specific activity of the compound.
(§2) In parallel, cytotoxic effects of the compounds (50% cytotoxic concentration [CC50] and 90% cytotoxic concentration [CC90]) were evaluated using an ATPlite cell viability luminescence assay (PerkinElmer). To this end, ATPlite was added to the wells according to the supplier's instructions once the eGFP read-out was performed, and the luminescence was measured; a measure directly relating to the number of viable cells. The CC50 was determined as the 50% inhibitory concentration for the luminescent signal in compound-treated DENV-infected cells compared to untreated DENV-infected cells (virus control), using a medium control as baseline of emitted light (i.e., 0% signal).
In general terms: Cellular ATP, detected with luciferase, serves as a proxy for viable cell number.

In series [2] the test system is DENV-2/16681/eGFP. Description: Antiviral activity against DENV-2/16681/eGFP in Huh-7 cells (eGFP read-out). Type of series: cell-based, dengue virus serotype 2. To be noted: Dengue virus, DENV2, Huh-7, 72 h, read-out: DENV Huh-7 (EC50, μM). As to the method:
as §1
(§3) DENV-2/16681/eGFP was produced by the transfection of the in vitro transcribed RNA of plasmid pFK-DVs-G2A (purchased from Prof. R. Bartenschlager, University of Heidelberg, Germany; FIG. 1) into Huh-7 cells (human hepatocarcinoma cells; kindly provided by Prof. R. Bartenschlager) (TV-WI-04247).
(§4) In brief, 2,500 Vero cells (African green monkey kidney cells; European Collection of Cell Cultures [ECACC], Porton Down, UK; catalogue number 84113001) or Huh-7 cells were seeded in 384-well plates containing 9-fold serially diluted test compound. After incubating 24 h at 37° C., Vero and Huh-7 cells were infected with DENV-2/16681/eGFP at a multiplicity of infection (MOI) of 1 and 5, respectively. After 3 days of incubation at 37° C., the viral replication was quantified by measuring eGFP expression in the cells with a laser microscope. The 50% effective concentration (EC50) was defined as the concentration inhibiting 50% of the eGFP expression of the compound-treated DENV-infected cells vs. the untreated DENV-infected cells (virus control), using the cell controls as baseline of eGFP signal (i.e., 0% signal). In the same way, the 90% effective concentration (EC90) was calculated.

In series [3] the test system is CHIKV strain S27. Description: CHIKV CPE inhibition assay in Huh7 cells. Type of series: cell-based. The note with it: Chikungunya virus, Huh-7, 48 h. On the procedure:
The antiviral activities of the nucleoside analogs against chikungunya virus (CHIKV) were tested using a cell-based high-throughput CPE (cytopathic effect) inhibition assay. In this assay, CHIKV strain S27 and Huh7 cells (a human hepatoma cell line) were employed. The test compounds were prepared in a 9-point fourfold serial dilutions and plated in a 384-well plate. Then, a density of 8000 cells/well and an MOI (Multiplicity of Infection) of 0.25 CHIKV were added to each well. The plates were incubated at 37° C./5% CO2 for 2 days. The antiviral activity of a test compound was measured by addition of an ATPLite™ 1-step kit (PerkinElmer), which measures the ATP levels in live cells protected from viral CPE by a test compound. The cytotoxicity of test compounds was measured in parallel in the absence of virus infection. The readout is luminescence.

Series [4] deals with HCV replicon (NS3-NS5B regions of HCV type 1b) in Huh-7 luc/neo cells. Put plainly: HCV replicon assay (Huh-Luc cells, luciferase read-out). To be noted: Hepatitis C virus, Huh-7, 72 h. Type of series: cell-based. The source says:
The compounds of Formula (I) were examined for activity against HCV in a cellular assay. […] The cellular assay was based on a bicistronic expression construct, as described by Lohmann et al. (1999) Science vol. 285 pp. 110-113 with modifications described by Krieger et al. (2001) Journal of Virology 75: 4614-4624, in a multi-target screening strategy.
In essence, the method was as follows. The assay utilized the stably transfected cell line Huh-7 luc/neo (hereafter referred to as Huh-Luc). This cell line harbors an RNA encoding a bicistronic expression construct comprising the wild type NS3-NS5B regions of HCV type 1b translated from an internal ribosome entry site (IRES) from encephalomyocarditis virus (EMCV), preceded by a reporter portion (FfL-luciferase), and a selectable marker portion (neo^R, neomycine phosphotransferase). The construct is bordered by 5′ and 3′ NTRs (non-translated regions) from HCV genotype 1b. Continued culture of the replicon cells in the presence of G418 (neo^R) is dependent on the replication of the HCV-RNA. The stably transfected replicon cells that express HCV-RNA, which replicates autonomously and to high levels, encoding inter alia luciferase, were used for screening the antiviral compounds.
The replicon cells were plated in 384-well plates in the presence of the test and control compounds which were added in various concentrations. Following an incubation of three days, HCV replication was measured by assaying luciferase activity (using standard luciferase assay substrates and reagents and a Perkin Elmer ViewLux™ ultraHTS microplate imager). Replicon cells in the control cultures have high luciferase expression in the absence of any inhibitor. The inhibitory activity of the compound on luciferase activity was monitored on the Huh-Luc cells, enabling a dose-response curve for each test compound. EC50 values were then calculated, which value represents the amount of the compound required to decrease the level of detected luciferase activity by 50%, or more specifically, the ability of the genetically linked HCV replicon RNA to replicate.
A general note: In antiviral work, replicon cells carry a viral genome segment that copies itself.

Series [5] is described as follows: Cytotoxicity in Huh-7 cells (ATPlite cell viability). The format is cell-based. The note with it: human, Table 1A, read-out: Tox Huh-7 (CC50). As to the method:
as §1, §2

Series [6] has as its system DENV-2/16681/eGFP. Description: Antiviral activity against DENV-2/16681/eGFP in Vero cells (eGFP read-out). The format is cell-based, dengue virus serotype 2. To be noted: Dengue virus, DENV2, Vero, 72 h, read-out: DENV Vero (EC50, μM). On the procedure:
as §1, §3, §4

The mark [7] stands for this setting: Table 1A, Huh7 cells, MOI 0.25, 2 days, read-out: CHIKV Huh-7 (EC50).
The mark [8] stands for this setting: Table 1A, Huh-Luc replicon cells, 3 days, read-out: HCV Huh-7 (EC50).
The mark [9] stands for this setting: read-out: CHIKV Huh-7 (EC50, μM).

Drawing on US11267844B2, “Spirothietane nucleosides” (Janssen Pharmaceutica NV, priority 2017, dated 2022), this text covers CC50 and EC50 for 10 compounds.

What is called CC50 is the concentration at which the toxic effect on the cells reaches its halfway point. As a reminder, the EC50 is the midpoint of the concentration-response curve.

Like-named read-outs stand apart in the source and are kept apart here. A value given as a limit tells only on which side of the number the result lay.

Take `CCCCOC(=O)[C@H](C)NP(=O)(OC[C@@]1(F)O[C@@H](n2ccc(=O)[nH]c2=O)[C@@]2(CCS2)[C@@H]1O)Oc1ccccc1` (stereo partly drawn) [Compound 25, (2S)-butyl 2-(((((4R,5R,7S,8R)-5-(2,4-dioxo-3,4-dihydropyrimidin-1(2H)-yl)-7-fluoro-8-hydroxy-6-oxa-1-thiaspiro[3.4]octan-7-yl)methoxy)(phenoxy)phosphoryl)amino)propanoate]: the CC50 in series [1] and in series [5] was greater than 100 µM in each case. In addition, the EC50 stood at 4 µM in series [2], 3 µM in series [3] (setting [7]), 2 µM in series [4] (setting [8]) and 35 µM in series [6].
Consider `Nc1ccn([C@@H]2O[C@](F)(CO)[C@@H](O)[C@]23CCS3)c(=O)n1` [Compound 27, 4-amino-1-((4R,5R,7S,8R)-7-fluoro-8-hydroxy-7-(hydroxymethyl)-6-oxa-1-thiaspiro[3.4]octan-5-yl)pyrimidin-2(1H)-one], for which the CC50 in series [1] and in series [5] was greater than 100 µM throughout. Further, the EC50 in series [2] was 77 µM; in series [3] (setting [9]), greater than 100 µM; in series [4] (setting [8]) it was greater than 100 µM; in series [6], 50 µM.
As for `CC(C)OC(=O)[C@H](C)NP(=O)(OC[C@@]1(F)O[C@@H](n2ccc(N)nc2=O)[C@@]2(CCS2)[C@@H]1O)Oc1ccccc1` (stereo partly drawn) [Compound 31, (2S)-isopropyl 2-(((((4R,5R,7S,8R)-5-(4-amino-2-oxopyrimidin-1(2H)-yl)-7-fluoro-8-hydroxy-6-oxa-1-thiaspiro[3.4]octan-7-yl)methoxy)(phenoxy)phosphoryl)amino)propanoate], the CC50 in series [1] and in series [5] was greater than 100 µM each time. The EC50 in series [2] was 36 µM; in series [3] (setting [7]), greater than 100 µM; in series [4] (setting [8]), 11 µM; in series [6], greater than 100 µM.
`O=c1ccn([C@@H]2O[C@](F)(COP(=O)(Oc3ccccc3Cl)OC3CCCC3)[C@@H](O)[C@]23CCS3)c(=O)[nH]1` (stereo partly drawn) [Compound 34, 2-chlorophenyl cyclopentyl (((4R,5R,7S,8R)-5-(2,4-dioxo-3,4-dihydropyrimidin-1(2H)-yl)-7-fluoro-8-hydroxy-6-oxa-1-thiaspiro[3.4]octan-7-yl)methyl) phosphate]: the cytotoxic concentration (CC50) in series [1] and in series [5] was greater than 100 µM in each case. Besides, the concentration giving a half-maximal response (EC50) in series [2] was 53 µM; in series [3] (setting [9]), greater than 100 µM; in series [4] (read-out: HCV Huh-7 (EC50, μM)), greater than 100 µM; in series [6], 35 µM.
With `O=c1ccn([C@@H]2O[C@]3(F)COP(=O)(OC4CCCC4)O[C@H]3[C@]23CCS3)c(=O)[nH]1` (stereo partly drawn) [Compound 35, 1-((2′R,4aS,6R,7aR)-2-(cyclopentyloxy)-4a-fluoro-2-oxidotetrahydrospiro[furo[3,2-d][1,3,2]dioxaphosphinine-7,2′-thietan]-6-yl)pyrimidine-2,4(1H,3H)-dione], the CC50 in series [1] and in series [5] was greater than 100 µM each time. For the same compound, the concentration for a half-maximal effect (EC50) in series [2] was greater than 100 µM; in series [3] (setting [9]) it was 72 µM; in series [4] (setting [8]), 25 µM; in series [6], greater than 100 µM.
Take `CC(C)OP(=O)(OC[C@@]1(F)O[C@@H](n2ccc(=O)[nH]c2=O)[C@@]2(CCS2)[C@@H]1O)Oc1ccc(Cl)cc1` (stereo partly drawn) [Compound 37, 4-chlorophenyl (((4R,5R,7S,8R)-5-(2,4-dioxo-3,4-dihydropyrimidin-1(2H)-yl)-7-fluoro-8-hydroxy-6-oxa-1-thiaspiro[3.4]octan-7-yl)methyl) isopropyl phosphate]: the 50% cytotoxic concentration (CC50) in series [1] and in series [5] was greater than 100 µM each time. Moreover, the EC50 was greater than 100 µM in series [2]; greater than 100 µM in series [3] (setting [9]); greater than 100 µM in series [4] (read-out: HCV Huh-7 (EC50, μM)); greater than 100 µM in series [6].
With `O=c1ccn([C@@H]2O[C@](F)(COP(=O)(NC3CCC3)Oc3ccc(Cl)cc3)[C@@H](O)[C@]23CCS3)c(=O)[nH]1` (stereo partly drawn) [Compound 39, 4-chlorophenyl (((4R,5R,7S,8R)-5-(2,4-dioxo-3,4-dihydropyrimidin-1(2H)-yl)-7-fluoro-8-hydroxy-6-oxa-1-thiaspiro[3.4]octan-7-yl)methyl) cyclobutylphosphoramidate], the CC50 in series [1] and in series [5] was greater than 100 µM each time. Besides, the half-maximal effective concentration (EC50) in series [2] was 49 µM; in series [3] (setting [7]) it was greater than 100 µM; in series [4] (setting [8]), greater than 100 µM; in series [6], 45 µM.
On to `O=c1ccn([C@@H]2O[C@]3(F)CO[P@](=O)(NC4CCC4)O[C@H]3[C@]23CCS3)c(=O)[nH]1` [Compound 40a, 1-((2R,2′R,4aS,6R,7aR)-2-(cyclobutylamino)-4a-fluoro-2-oxidotetrahydrospiro[furo[3,2-d][1,3,2]dioxaphosphinine-7,2′-thietan]-6-yl)pyrimidine-2,4(1H,3H)-dione], for which the CC50 in series [1] and in series [5] was greater than 100 µM in each case. Moreover, the EC50 in series [2], in series [3] (setting [7]), in series [4] (setting [8]) and in series [6] was greater than 100 µM in each case.
For the compound `O=c1ccn([C@@H]2O[C@]3(F)CO[P@@](=O)(NC4CCC4)O[C@H]3[C@]23CCS3)c(=O)[nH]1` [Compound 40b, 1-((2S,2′R,4aS,6R,7aR)-2-(cyclobutylamino)-4a-fluoro-2-oxidotetrahydrospiro[furo[3,2-d][1,3,2]dioxaphosphinine-7,2′-thietan]-6-yl)pyrimidine-2,4(1H,3H)-dione], the CC50 in series [1] and in series [5] was greater than 100 µM each time. The EC50 in series [2], in series [3] (setting [7]), in series [4] (setting [8]) and in series [6] was greater than 100 µM throughout.
`[N-]=[N+]=N[C@]1(CO)O[C@@H](n2ccc(=O)[nH]c2=O)[C@@]2(CCS2)[C@@H]1O` [Compound 44, 1-[(4R,5R,6R,8R)-6-azido-5-hydroxy-6-(hydroxymethyl)-7-oxa-1-thiaspiro[3.4]octan-8-yl]pyrimidine-2,4-dione]: the CC50 in series [1] and in series [5] was greater than 100 µM each time. The EC50 in series [2], in series [3] (setting [9]), in series [4] (setting [8]) and in series [6] was greater than 100 µM each time.
